Measurements published in publication PMC7817009, “Structural analysis of rice Os4BGlu18 monolignol β-glucosidase” (PLoS ONE, 2021).

Target: T1, Os4BGlu18 (Oryza sativa, UniProt Q7XSK0)
T1 construct: gene BGLU18; mature protein without predicted signal peptide (1-26); N-terminal thioredoxin-His6 tag cut with enterokinase, a few tag residues remain; residues 27-500 seen, last five (LHENQ) disordered
Experiment: X-ray crystallography of soaked crystal, […] Å
Details: crystals soaked in 1 mM for 20 min, MES pH 6.0; glycone-binding active site (subsite -1)

T1 sequence (Q7XSK0 27-505): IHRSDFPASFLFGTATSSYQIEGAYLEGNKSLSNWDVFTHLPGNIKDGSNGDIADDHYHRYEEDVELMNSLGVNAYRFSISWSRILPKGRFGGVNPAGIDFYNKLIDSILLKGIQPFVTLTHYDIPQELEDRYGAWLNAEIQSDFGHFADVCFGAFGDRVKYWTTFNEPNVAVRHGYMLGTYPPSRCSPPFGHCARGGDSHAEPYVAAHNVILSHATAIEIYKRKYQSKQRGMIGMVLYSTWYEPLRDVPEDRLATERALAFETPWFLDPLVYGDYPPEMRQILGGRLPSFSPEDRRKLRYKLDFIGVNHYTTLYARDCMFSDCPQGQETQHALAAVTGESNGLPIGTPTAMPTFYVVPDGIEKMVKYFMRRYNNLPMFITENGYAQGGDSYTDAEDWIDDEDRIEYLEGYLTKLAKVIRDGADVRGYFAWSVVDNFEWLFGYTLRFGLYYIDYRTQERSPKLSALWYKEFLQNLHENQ

**Q.** `O=C1O[C@H](CO)[C@@H](O)[C@H](O)[C@H]1O` [DG, δ-gluconolactone] was tested. Which “X-ray crystallography of soaked crystal, 2.1 Å” value did it give?
**A.** Its value is “could be observed in the active site pocket”.
